In patent publication US20200022970A1, “APPLICATION OF LEVOROTATORY TETRAHYDROPALMATINE TO THE TREATMENT OF DEPRESSION DISORDERS, BIPOLAR AND RELATED DISORDERS, MANIC EPISODES AND ANXIETY DISORDERS” (priority 2018, published 2020):
Where two headings read alike, the source gives them in different places.

Assays:
Male ICR mice [1] = assay: Elevated plus-maze test; type: in vivo; settings: for time spent in the open arms (anxiolytic effect): 45 minutes prior, 5-minute test; for anxiolysis (time spent in open arms): p<0.001
Protocol: Elevated plus-maze test. Naive male ICR mice 4 to 6 weeks of age were randomly separated into groups (n=15-20/group). Vehicle (0.9% NaCl), 0.01, 0.05, 0.1, 0.5, 1, 2 and 2.5 mg/kg dl-THP or l-THP, or 1 or 3 mg/kg diazepam was orally administered 45 minutes prior to experiment. The test apparatus consisted of four arms, 25 cm×5 cm each, extended from a center platform of 5 cm×5 cm in the shape of a plus sign. Two of the opposite arms were enclosed by 20 cm opaque high walls, making up the closed arms. The plus maze was elevated 40 cm off the ground. Each mouse was placed onto the center of the maze with head facing an open arm. The frequency and time spent in the open and closed arms were recorded for a period of 5 minutes. An arm entry was recorded when all four paws were inside the arm. Increased number of open-arm entries and percentage of time spent in them are indicative of an anxiolytic effect on the mice (Kalueff and Tuohimaa, 2004; Treit et al., 1993). In addition, the number of closed-arm entries provided an index of locomotor activity (Boguszewski and Zagrodzka, 2002). […] The first group received vehicle (p.o.) 45 minutes prior to test and flumazenil (1.25 mg/kg i.p) 15 minutes prior to test, the second group received l-THP (1.0 mg/kg, p.o) 45 minutes prior to test and vehicle (i.p) 15 minutes prior to test, and the third group received l-THP (1.0 mg/kg p.o) 45 minutes prior to test and flumazenil (1.25 mg/kg i.p) 15 minutes prior to test.

Male ICR mice [2] = assay: Tail suspension test; type: in vivo; settings: for influence of flumazenil on antidepressant effect (immobility time): 2.0 mg/kg p.o. 45 minutes prior plus flumazenil 1.25 mg/kg i.p. 15 minutes prior; for oral dose that significantly shortens immobility time (antidepressant effect): 45 minutes prior to testing (imipramine 30 minutes), immobility scored from 2 to 6 min
Protocol: Tail suspension test. Male ICR mice 4 to 6 weeks of age were randomized into groups (n=12-20/group). Vehicle (0.9% NaCl), or one of oral l-THP, dl-THP and d-THP (0.1-5.0 mg/kg) was administered 45 minutes prior to testing; or 30 mg/kg oral imipramine was administered 30 minutes prior to testing. In the test, a mouse was taped to a bar by the tail and suspended 15 cm above ground for 6 minutes. The total time of immobility was scored manually from 2 to 6 min during the period of suspension. Decreased time of immobility is indicative of antidepressant effect (Stem et al, 1985). To test whether the antidepressant effect elicited by l-THP or dl-THP can be blocked by the benzodiazepine (BZ) binding site antagonist flumazenil, naïve male 4-6 week old mice were randomly separated into three groups (n=12-20/group). The first group received vehicle (p.o.) 45 minutes prior to test and flumazenil (1.25 mg/kg i.p) 15 minutes prior to test, the second group received l-THP (2.0 mg/kg, p.o) or dl-THP (2.0 mg/kg, p.o.) 45 minutes prior to test and vehicle (i.p) 15 minutes prior to test, and the third group received l-THP (2.0 mg/kg p.o) or dl-THP (2.0 mg/kg p.o) 45 minutes prior to test and flumazenil (1.25 mg/kg i.p) 15 minutes prior to experiment.

mice [3] = settings: oral administration; cited from earlier work
Male ICR mice [4] = assay: Horizontal wire test (myorelaxant effect); type: in vivo
Protocol: Male ICR mice of 4 to 6 weeks were randomly separated into groups (n=15-20 per group). Vehicle (0.9% NaCl), 0.01-2.5 mg/kg dl-THP or l-THP, and 1 and 3 mg/kg diazepam were orally administered 45 minutes prior to test. Locomotor activity was measured based on crossings of infrared beams. […] Myorelaxant activity was measured using the horizontal wire test. In this test, mouse was lifted by the tail and allowed to grasp onto a horizontally strung wire (1 mm diameter, 20 cm long and placed 20 cm above the table) with their forepaws and released. For each mouse, the number of falls in 60 seconds was recorded.

Male ICR mice [5] = assay: Locomotor activity side effect test (crossings of infrared beams); type: in vivo; settings: 3 mg/kg, 45 minutes prior; p<0.05
Protocol: Manic-like behavior was induced accomplished using the method of Pathak et al. (2015). Male ICR mice of 6 to 7 week were given daily injection of 1.8 mg/kg d-amphetamine (amphetamine-sensitized mice) or vehicle (0.9% NaCl vehicle treated, viz. mice unsensitized by amphetamine) for 5 days. Amphetamine was then withdrawn for 7 days. The locomotor activity test ‘ZIL-2’ apparatus (Beijing Institute of Materia Medica) employed consisted of a transparent plastic cylinder of 20 cm diameter×12 cm height equipped with six evenly spaced sets of infrared beam-photocell. The number of transitions made by the mouse across the beams as detected by the photocells was recorded automatically over a period of 5 minutes. The level of locomotor activity was scored by the number beam-crossings made by the mouse. In the test, amphetamine sensitized mice were randomly separated into groups (m=12-20 per group). The Amp group of mice received 0.9 mg/kg amphetamine injection 10 minutes prior to testing. […]
Male ICR mice of 4 to 6 weeks were randomly separated into groups (n=15-20 per group). […] Locomotor activity was measured based on crossings of infrared beams. […] Myorelaxant activity was measured using the horizontal wire test. […] For each mouse, the number of falls in 60 seconds was recorded.

mice [6] = settings: 6.25, 12.5, and 18.75 mg/kg i.g.; cited from earlier work
[7] = test system: amphetamine sensitized mice; assay: Test for antimanic-like behavior: locomotor activity of amphetamine sensitized mice; type: in vivo; settings: 0.9 mg/kg amphetamine 10 minutes prior
Protocol: Manic-like behavior was induced accomplished using the method of Pathak et al. (2015). Male ICR mice of 6 to 7 week were given daily injection of 1.8 mg/kg d-amphetamine (amphetamine-sensitized mice) or vehicle (0.9% NaCl vehicle treated, viz. mice unsensitized by amphetamine) for 5 days. Amphetamine was then withdrawn for 7 days. The locomotor activity test ‘ZIL-2’ apparatus (Beijing Institute of Materia Medica) employed consisted of a transparent plastic cylinder of 20 cm diameter×12 cm height equipped with six evenly spaced sets of infrared beam-photocell. The number of transitions made by the mouse across the beams as detected by the photocells was recorded automatically over a period of 5 minutes. The level of locomotor activity was scored by the number beam-crossings made by the mouse. In the test, amphetamine sensitized mice were randomly separated into groups (m=12-20 per group). The Amp group of mice received 0.9 mg/kg amphetamine injection 10 minutes prior to testing. The l-THP groups received oral l-THP (0.05, 0.1 and 0.2 mg/kg) 30 minutes prior to testing, and 0.9 mg/kg amphetamine injection 10 minutes prior to testing. The Veh mice received vehicle orally 30 minutes prior to testing and vehicle injection 10 minutes prior to testing.

rats [8] = settings: PTSD rats, cited from earlier work
female ICR mice = assay: Crawley's sociability and preference for social novelty test (three-chamber box); type: in vivo; settings: 45 minutes prior
Protocol: In Crawley's test, female ICR mice of 8 to 10 weeks were randomized into groups (n=12-20/group), and orally administered 45 minutes prior to testing with vehicle (0.9% NaCl), 0.1 mg/kg l-THP or 0.5 mg/kg l-THP. The test apparatus comprised a rectangular, three-chamber box. Each chamber was 19×45 cm, and the dividing walls between chambers were made of clear Plexiglas. The central chamber was connected to each side chamber with a removable wall. Two identical wire cylindrical containers with removable lids that were large enough to hold a single mouse each were placed vertically inside the apparatus, one in the middle of each side chamber. Each of these containers consisted of a cup made of metal wires to allow for air exchange between the interior and exterior of the cylinder but small enough to prevent direct physical interactions between an animal on the inside with one on the outside, and a removable lid. In the beginning of the test, the two cylindrical containers in the two side chambers were empty, and the subject mouse was placed at the center of the middle chamber for adaptation. After 5 minutes, one social-object mouse (stranger-1) was placed inside the cylinder in one of the side chambers. The placement of strange-1 was systematically changed between the two side chambers between trials. Then the walls separating the middle chamber from the two side chambers were removed to allow the subject mouse free access to all three chambers. In a first 10-minute session, the duration and number of direct contacts between the subject mouse and the container cup housing or not housing the stranger-1 mouse were recorded individually. At the end of this session, a second social-object mouse (stranger-2) was placed in the wire container cup that was empty during the first 10-minute session. Then the duration and number of direct contacts between the subject mouse and the two container cups holding stranger-1 mouse and stranger-2 mouse were recorded separately during a second 10-minute session. The first 10-minute session provided an estimate of the sociability of the subject mouse in terms of its preference if any to spend more time with the container holding the stranger-1 mouse compared to the empty container. The second 10-minute session provided an estimate of the preference of the subject mouse for social novelty in terms of its preference if any to associate with the container holding the novel stranger-2 mouse compared to the container holding the more familiar stranger-1 mouse (Moy et al 2004; Kaidanovich-Beilin et al., 2011).

rats [9] = settings: 10, 20 and 40 mg/kg i.p., mediated by D2 receptors; cited from earlier work
rats [10] = settings: PTSD rats, cited from earlier work; remark: listed apart in the source
rats [11] = settings: cited from earlier work

## COc1cc2c(cc1OC)[C@@H]1Cc3ccc(OC)c(OC)c3CN1CC2 (racemic) [dl-THP, dl-tetrahydropalmatine]
Male ICR mice [1]; 1.0 mg/kg oral
  time spent in the open arms (anxiolytic effect): significant increase in time spent in the open arms
Male ICR mice [1]; 2.0 mg/kg oral
  time spent in the open arms (anxiolytic effect): significant increase in time spent in the open arms
Male ICR mice [1]
  lowest oral dose active for anxiolysis: ≥ 1.0 mg/kg
Male ICR mice [2]
  influence of flumazenil on antidepressant effect (immobility time): inhibition of the antidepressant effects
  lowest oral dose eliciting antidepressant effect based on immobility time: ≥ 2.0 mg/kg
  oral dose that significantly shortens immobility time (antidepressant effect): 2.0 to 5.0 mg/kg
Mice [3]
  anxiolytic effects: entries into open arms without significant change in entries into closed arms: selective anxiolytic effects

## CN1C(=O)CN=C(c2ccccc2)c2cc(Cl)ccc21 [Diazepam]
Male ICR mice [1]; diazepam 1 mg/kg
  anxiolysis (time spent in open arms): significant anxiolysis
Male ICR mice [1]; diazepam 3 mg/kg
  anxiolysis (time spent in open arms): significant anxiolysis
Male ICR mice [4]; 3 mg/kg
  myorelaxant effect (number of falls in 60 seconds): significant (p<0.05) myorelaxant effect
Male ICR mice [5]
  locomotor activity (crossings of infrared beams): significant decrease

## CN(C)CCCN1c2ccccc2CCc2ccccc21 [Imipramine]
Male ICR mice [2]
  oral dose that significantly shortens immobility time (antidepressant effect): 30 mg/kg

## COc1cc2c(cc1OC)[C@@H]1Cc3ccc(OC)c(OC)c3CN1CC2 [l-THP, levorotatory tetrahydropalmatine]
Male ICR mice [1]; 0.1 mg/kg oral
  time spent in the open arms (anxiolytic effect): significant increase in time spent in the open arms
Male ICR mice [1]; 0.5 mg/kg oral
  time spent in the open arms (anxiolytic effect): significant increase in time spent in the open arms
Male ICR mice [1]; 1.0 mg/kg p.o. 45 minutes prior plus flumazenil 1.25 mg/kg i.p. 15 minutes prior
  influence of flumazenil on anxiolytic effect (time spent in open arms): inhibition of the anxiolytic effect
Male ICR mice [1]; 2.5 mg/kg oral
  time spent in the open arms (anxiolytic effect): significant increase in time spent in the open arms
Male ICR mice [1]
  lowest oral dose active for anxiolysis: ≥ 0.1 mg/kg
Male ICR mice [4]; male, ICR, mouse, in vivo, 45 min
  myorelaxant effect (number of falls in 60 seconds): significant (p<0.01) myorelaxant effect
Male ICR mice [4]; mouse, in vivo
  myorelaxant effect (number of falls in 60 seconds): did not induce any significant myorelaxant effect
Mice [6]
  locomotor activity: did not affect locomotor activity
Male ICR mice [2]
  influence of flumazenil on antidepressant effect (immobility time): inhibition of the antidepressant effects
  lowest oral dose eliciting antidepressant effect based on immobility time: ≥ 0.5 mg/kg
  oral dose that significantly shortens immobility time (antidepressant effect): 0.5 to 5.0 mg/kg
[7]; 0.05 mg/kg oral 30 minutes prior
  level of locomotor activity relative to Amp mice (antimanic effect): significantly reduced the level locomotor activity
[7]; 0.1 mg/kg oral 30 minutes prior
  level of locomotor activity relative to Amp mice (antimanic effect): significantly reduced the level locomotor activity
[7]; 0.2 mg/kg oral 30 minutes prior
  level of locomotor activity relative to Amp mice (antimanic effect): significantly reduced the level locomotor activity
Rats [8]; daily 50 mg/kg i.p.
  antidepressant effect based on sucrose intake or immobility time in the forced swimming test: significant antidepressant effect
Rats [8]; daily 10 or 20 mg/kg i.p.
  antidepressant effect based on sucrose intake or immobility time in the forced swimming test: not
Female ICR mice; 0.1 mg/kg oral, p<0.001
  preference for social novelty: stranger-2 vs familiar stranger-1 mouse: showed preference for the novel stranger-2 mouse
  sociability: time with stranger-1 mouse container vs empty container: significant enhancement of sociability
Female ICR mice; 0.5 mg/kg oral, p<0.01
  preference for social novelty: stranger-2 vs familiar stranger-1 mouse: showed preference for the novel stranger-2 mouse
  sociability: time with stranger-1 mouse container vs empty container: significant enhancement of sociability
Rats [9]
  antinociceptive effects: dose-dependent antinociceptive effects
Rats [10]; daily 50 mg/kg i.p.
  anxiolytic effect based on the elevated plus-maze test: significant anxiolytic effect
Rats [10]; daily 10 or 20 mg/kg i.p.
  anxiolytic effect based on the elevated plus-maze test: not
Rats [11]; 3 mg/kg i.p.
  locomotion: failed to do so
Rats [11]; 10 mg/kg i.p.
  locomotion: inhibited locomotion
